Inconclusive results and toxic doses are left out. Rule for the calls: active = survival T/C of 150% or more; inactive = T/C below 125% in these data.
Test system: CD2F1 mice, L1210 leukemia ip, survival T/C
Test: NCI In Vivo Anticancer Drug Screen. Data for tumor model L1210 Leukemia (intraperitoneal) in CD2F1 (CDF1) mice
Conditions: higher = longer survival
In short: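 Each value reflects a quotient of treated over vehicle control outcomes in mice with a transplanted tumor.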

[1] = endpoint: mean survival time, dose: 100.0 mg/kg/injection, schedule: Q01DX009 (ip), vehicle: saline with Tween-80
[2] = endpoint: mean survival time, dose: 400.0 mg/kg/injection, schedule: Q01DX009 (ip), vehicle: saline with Tween-80
[3] = endpoint: mean survival time, dose: 100.0 mg/kg/injection, schedule: Q01DX001 (ip), vehicle: saline
[4] = endpoint: mean survival time, dose: 200.0 mg/kg/injection, schedule: Q01DX001 (ip), vehicle: saline
[5] = endpoint: mean survival time, dose: 400.0 mg/kg/injection, schedule: Q01DX001 (ip), vehicle: saline
[6] = endpoint: mean survival time, dose: 75.0 mg/kg/injection, schedule: Q01DX001 (ip), vehicle: saline
[7] = endpoint: mean survival time, dose: 100.0 mg/kg/injection, schedule: Q04DX003 (ip), vehicle: saline with Tween-80
[8] = endpoint: mean survival time, dose: 12.5 mg/kg/injection, schedule: Q01DX005 (ip), vehicle: distilled water + Tween-80
[9] = endpoint: mean survival time, dose: 25.0 mg/kg/injection, schedule: Q01DX005 (ip), vehicle: distilled water + Tween-80
[10] = endpoint: mean survival time, dose: 50.0 mg/kg/injection, schedule: Q01DX005 (ip), vehicle: distilled water + Tween-80

Measured: T/C

O=c1c2ccccc2nnn1OCc1ccccc1
inactive: endpoint: mean survival time, dose: 12.5 mg/kg/injection, schedule: Q01DX001 (ip), vehicle: distilled water + Tween-80 104 % of control | endpoint: mean survival time, dose: 25.0 mg/kg/injection, schedule: Q01DX001 (ip), vehicle: distilled water + Tween-80 90 % of control | endpoint: mean survival time, dose: 50.0 mg/kg/injection, schedule: Q01DX001 (ip), vehicle: distilled water + Tween-80 92 % of control | endpoint: mean survival time, dose: 100.0 mg/kg/injection, schedule: Q01DX001 (ip), vehicle: distilled water + Tween-80 90 % of control | endpoint: mean survival time, dose: 200.0 mg/kg/injection, schedule: Q01DX001 (ip), vehicle: distilled water + Tween-80 88 % of control

CC(C)=CCC/C(C)=C\CC1=C(O)c2ccccc2C(=O)C1=O
inactive: endpoint: mean survival time, dose: 50.0 mg/kg/injection, schedule: Q01DX009 (ip), vehicle: other 96 % of control | endpoint: mean survival time, dose: 100.0 mg/kg/injection, schedule: Q01DX009 (ip), vehicle: other 94 % of control | endpoint: mean survival time, dose: 200.0 mg/kg/injection, schedule: Q01DX009 (ip), vehicle: other 95 % of control

Cc1ccc(S(=O)(=O)OC2C(O)OC3COC(c4ccccc4)OC3C2OS(=O)(=O)c2ccc(C)cc2)cc1 (stereo not given)
inactive: endpoint: mean survival time, dose: 100.0 mg/kg/injection, schedule: Q01DX001 (ip), vehicle: saline with Tween-80 94 % of control | endpoint: mean survival time, dose: 200.0 mg/kg/injection, schedule: Q01DX001 (ip), vehicle: saline with Tween-80 105 % of control | endpoint: mean survival time, dose: 400.0 mg/kg/injection, schedule: Q01DX001 (ip), vehicle: saline with Tween-80 94 % of control

COc1cccc(C(=O)c2ccncc2)c1OC
inactive: endpoint: mean survival time, dose: 25.0 mg/kg/injection, schedule: Q01DX009 (ip), vehicle: water 91 % of control | endpoint: mean survival time, dose: 100.0 mg/kg/injection, schedule: Q01DX009 (ip), vehicle: water 95 % of control | endpoint: mean survival time, dose: 200.0 mg/kg/injection, schedule: Q01DX009 (ip), vehicle: water 90 % of control

CC(=O)CCC(C)=O
inactive: [1] 100 % of control | endpoint: mean survival time, dose: 100.0 mg/kg/injection, schedule: Q04DX003 (ip), vehicle: saline 97 % of control | endpoint: mean survival time, dose: 200.0 mg/kg/injection, schedule: Q01DX009 (ip), vehicle: saline with Tween-80 109 % of control | endpoint: mean survival time, dose: 200.0 mg/kg/injection, schedule: Q04DX003 (ip), vehicle: saline 100 % of control | [2] 100 % of control | endpoint: mean survival time, dose: 400.0 mg/kg/injection, schedule: Q04DX003 (ip), vehicle: saline 94 % of control

O=C(Oc1ccccc1)c1cc(O)c(O)c(O)c1
inactive: endpoint: median survival time, dose: 25.0 mg/kg/injection, schedule: Q01DX009 (ip), vehicle: saline with Tween-80 101 % of control | endpoint: median survival time, dose: 50.0 mg/kg/injection, schedule: Q01DX009 (ip), vehicle: saline with Tween-80 98 % of control | endpoint: median survival time, dose: 100.0 mg/kg/injection, schedule: Q01DX009 (ip), vehicle: saline with Tween-80 105 % of control | endpoint: median survival time, dose: 200.0 mg/kg/injection, schedule: Q01DX009 (ip), vehicle: saline with Tween-80 112 % of control

CCOC(=O)C=C(c1ccc(OC)c(OC)c1)c1ccc(OC)c(OC)c1
inactive: [3] 108 % of control | [4] 100 % of control | [5] 102 % of control

CCC[CH2][Sn]1([CH2]CCC)[O]c2ccccc2[O]1
inactive: endpoint: mean survival time, dose: 1.56 mg/kg/injection, schedule: Q04DX002 (ip), vehicle: saline with Tween-80 100 % of control | endpoint: mean survival time, dose: 3.12 mg/kg/injection, schedule: Q04DX002 (ip), vehicle: saline with Tween-80 96 % of control | endpoint: mean survival time, dose: 6.25 mg/kg/injection, schedule: Q04DX002 (ip), vehicle: saline with Tween-80 98 % of control | endpoint: mean survival time, dose: 12.5 mg/kg/injection, schedule: Q04DX002 (ip), vehicle: saline with Tween-80 113 % of control

CC1CCC(N=C2OCCN2N=O)CC1 (stereo not given)
inactive: endpoint: mean survival time, dose: 3.12 mg/kg/injection, schedule: Q01DX001 (ip), vehicle: water 97 % of control | endpoint: mean survival time, dose: 6.25 mg/kg/injection, schedule: Q01DX001 (ip), vehicle: water 96 % of control | endpoint: mean survival time, dose: 12.5 mg/kg/injection, schedule: Q01DX001 (ip), vehicle: water 98 % of control | endpoint: mean survival time, dose: 25.0 mg/kg/injection, schedule: Q01DX001 (ip), vehicle: water 94 % of control | endpoint: mean survival time, dose: 50.0 mg/kg/injection, schedule: Q01DX001 (ip), vehicle: water 94 % of control | endpoint: mean survival time, dose: 100.0 mg/kg/injection, schedule: Q01DX001 (ip), vehicle: water 108 % of control

COC(=O)C[As+](c1ccccc1)(c1ccccc1)c1ccccc1
inactive: endpoint: mean survival time, dose: 75.0 mg/kg/injection, schedule: Q01DX001 (ip), vehicle: other 97 % of control | [6] 103 % of control | endpoint: mean survival time, dose: 150.0 mg/kg/injection, schedule: Q01DX001 (ip), vehicle: other 91 % of control | endpoint: mean survival time, dose: 150.0 mg/kg/injection, schedule: Q01DX001 (ip), vehicle: saline 94 % of control

Cc1nc(-c2ccccc2)c(Cc2c(O)ccc3ccccc23)c(=O)[nH]1
inactive: [3] 97 % of control | [4] 100 % of control | [5] 100 % of control

O=C(Nc1ccc2c3c(ccc(NC(=O)c4ccccc4)c13)C=C2)c1ccccc1
inactive: [1] 95 % of control | [2] 89 % of control

CCSC1=[N+](SCC)CCCS1
inactive: [6] 103 % of control

COC(=O)C1(C)CCCC2(C)C1CCC13OCC(CC21)C(O)(C(C)C)C3O (stereo not given)
inactive: [7] 95 % of control | endpoint: mean survival time, dose: 200.0 mg/kg/injection, schedule: Q04DX003 (ip), vehicle: saline with Tween-80 97 % of control | endpoint: mean survival time, dose: 400.0 mg/kg/injection, schedule: Q04DX003 (ip), vehicle: saline with Tween-80 103 % of control

O=[N+]([O-])c1cccnc1Oc1cccc(C(F)(F)F)c1
inactive: endpoint: mean survival time, dose: 100.0 mg/kg/injection, schedule: Q01DX009 (ip), vehicle: saline 95 % of control | endpoint: mean survival time, dose: 200.0 mg/kg/injection, schedule: Q01DX009 (ip), vehicle: saline 96 % of control | endpoint: mean survival time, dose: 400.0 mg/kg/injection, schedule: Q01DX009 (ip), vehicle: saline 91 % of control

CCNc1ncc2ccccc2c1-c1ccc(NCCN(CCCl)CCCl)cc1
inactive: endpoint: mean survival time, dose: 25.0 mg/kg/injection, schedule: Q04DX003 (ip), vehicle: water 98 % of control | endpoint: mean survival time, dose: 50.0 mg/kg/injection, schedule: Q04DX003 (ip), vehicle: water 100 % of control | endpoint: mean survival time, dose: 100.0 mg/kg/injection, schedule: Q04DX003 (ip), vehicle: water 90 % of control

O=C(C[n+]1ccccc1Cc1ccccc1)c1ccccc1
inactive: endpoint: mean survival time, dose: 25.0 mg/kg/injection, schedule: Q04DX003 (ip), vehicle: saline with Tween-80 93 % of control | endpoint: mean survival time, dose: 50.0 mg/kg/injection, schedule: Q04DX003 (ip), vehicle: saline with Tween-80 96 % of control | [7] 101 % of control

NC(C(=O)O)=C(c1ccccc1)c1ccccc1
inactive: endpoint: mean survival time, dose: 100.0 mg/kg/injection, schedule: Q04DX002 (ip), vehicle: saline with Tween-80 98 % of control | endpoint: mean survival time, dose: 200.0 mg/kg/injection, schedule: Q04DX002 (ip), vehicle: saline with Tween-80 102 % of control | endpoint: mean survival time, dose: 400.0 mg/kg/injection, schedule: Q04DX002 (ip), vehicle: saline with Tween-80 102 % of control

CCCCCC(=O)/C=C/Sc1n[nH]c(=O)[nH]c1=O
inactive: [8] 96 % of control | [9] 100 % of control | [10] 104 % of control

COC(=O)CNc1ccn(C2OC(CO)C(O)C2O)c(=O)n1 (stereo not given)
inactive: [8] 96 % of control | [9] 100 % of control | [10] 100 % of control | endpoint: mean survival time, dose: 100.0 mg/kg/injection, schedule: Q01DX005 (ip), vehicle: distilled water + Tween-80 97 % of control | endpoint: mean survival time, dose: 200.0 mg/kg/injection, schedule: Q01DX005 (ip), vehicle: distilled water + Tween-80 103 % of control
